Molecules are shown by their SMILES.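 Method: 48-hour compound exposure of cells in 96-well plates, five concentrations, linear interpolation of endpoints. GI50 = concentration required for 50% inhibition of growth.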 Calls of active or inactive are those of the source. Rule as the data show it: active = GI50 up to about 1.1 µM and inactive = higher. Where only a bound is given, the exact number is not on record here.

Among the test systems are EKVX; NCI-H460; SNB-75; MDA-MB-231; DU-145; ACHN; T47D; NCI/ADR-RES; NCI-H226; BT-549; NCI-H522; SF-539; OVCAR-8; MDA-N; HOP-62; A549; HCC 2998; CCRF-CEM; LOX IMVI; NCI-H23.
Test in all cases: NCI-60 cell line screen, 48 h

Take `CCOC(=O)c1cc([N+](=O)[O-])cc([N+](=O)[O-])c1Sc1[nH]cnc2ncnc1-2`: the GI50 with EKVX is 5.08 µM (inactive); in the assay on NCI-H460, 8.81 µM (inactive); in the assay on SNB-75, 10.3 µM (inactive); with MDA-MB-231 it was 7.01 µM (inactive); in the assay with DU-145 it was 1.31 µM (inactive); with ACHN it was 1.96 µM (inactive). In addition, the GI50 in the assay with T47D is 1.2 µM (inactive); in the assay with NCI/ADR-RES, 3.11 µM (inactive); in the assay with NCI-H226, 24.1 µM (inactive); in the assay with BT-549 it was 2.24 µM (inactive); with NCI-H522, 1.55 µM (inactive); in the assay on SF-539, 2.92 µM (inactive). Further, the GI50 with OVCAR-8 is 1.93 µM (inactive); in the assay with MDA-N, 1.82 µM (inactive); in the assay on HOP-62, 3.54 µM (inactive); in the assay on A549 it was 14.3 µM (inactive); in the assay on HCC 2998, 11.9 µM (inactive); in the assay with CCRF-CEM, 0.462 µM (active). The GI50 with LOX IMVI was 0.454 µM (active).
Regarding `O=c1cnn(C/C=C/CBr)c(=O)[nH]1`, the GI50 in the assay on EKVX is 19.6 µM (inactive); in the assay with NCI-H460, 17.2 µM (inactive); with SNB-75, 18.8 µM (inactive); in the assay on MDA-MB-231, 21.9 µM (inactive); with DU-145, 24.2 µM (inactive); with ACHN it was 16.7 µM (inactive). Moreover, the GI50 with T47D was 19.1 µM (inactive); with NCI/ADR-RES, 23.3 µM (inactive); in the assay with NCI-H226, 17 µM (inactive); in the assay on BT-549, 0.527 µM (active); in the assay on NCI-H522 it was 8.17 µM (inactive); in the assay with SF-539 it was 16.1 µM (inactive). Moreover, the GI50 was 23.1 µM (inactive) in the assay with OVCAR-8; 14.7 µM (inactive) in the assay on MDA-N; 17.9 µM (inactive) in the assay with HOP-62; 16.8 µM (inactive) in the assay with A549; 18.5 µM (inactive) in the assay on HCC 2998; 15.2 µM (inactive) in the assay on CCRF-CEM. Moreover, the GI50 with LOX IMVI was 16.1 µM (inactive).
Take `N#Cc1cc2c(n(C3OC(CO)C(O)C(O)C3O)c1=S)CCC2` (configuration not stated): the GI50 in the assay on NCI-H23 is > 100 µM (inactive); in the assay on NCI-H460 it was > 100 µM (inactive); with SNB-75 it was 97.3 µM (inactive); in the assay with MDA-MB-231, > 100 µM (inactive); in the assay with DU-145, > 100 µM (inactive); with ACHN it was > 100 µM (inactive). Further, the GI50 with T47D, with NCI/ADR-RES, in the assay with NCI-H226, with BT-549, in the assay with NCI-H522 and with SF-539 was > 100 µM (inactive) each time. Also, the GI50 in the assay on OVCAR-8, in the assay with MDA-N, in the assay on HOP-62, in the assay on A549, with HCC 2998 and with CCRF-CEM was > 100 µM (inactive) each time. For the same molecule, the GI50 with LOX IMVI was > 100 µM (inactive).
For the molecule `CC1=CC(=O)/C(=C/NC(=S)NCc2ccccc2)C(=O)O1`, the GI50 in the assay with NCI-H23 is > 100 µM (inactive); with EKVX, > 100 µM (inactive); in the assay on NCI-H460, > 100 µM (inactive); in the assay with SNB-75, 80 µM (inactive); with MDA-MB-231 it was > 100 µM (inactive); in the assay on DU-145, > 100 µM (inactive). Also, the GI50 with ACHN, with T47D, in the assay with NCI/ADR-RES, in the assay on NCI-H226, in the assay with BT-549 and with NCI-H522 was > 100 µM (inactive) each time. Besides, the GI50 in the assay on SF-539, with OVCAR-8, with MDA-N, with HOP-62, with A549 and in the assay on HCC 2998 was > 100 µM (inactive) in each case. Moreover, the GI50 in the assay on CCRF-CEM and in the assay on LOX IMVI was > 100 µM (inactive) throughout.
